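In this assay, cells in 96-well plates receive the compound at five concentrations for 48 hours. Endpoints are linearly interpolated between the surrounding concentrations. Abbreviation: GI50, concentration required for 50% inhibition of growth. TGI: concentration producing complete growth inhibition.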
Legend:
Assay in all cases: DTP human tumour cell line panel, 48 h
MDA-N = test system: MDA-N
SNB-78 CNS = test system: SNB-78 CNS
DMS 273 small cell lung = test system: DMS 273 small cell lung
DMS 114 small cell lung = test system: DMS 114 small cell lung
DLD-1 colon = test system: DLD-1 colon
HOP-18 NSCLC = test system: HOP-18 NSCLC
XF 498 CNS = test system: XF 498 CNS
M19-MEL melanoma = test system: M19-MEL melanoma
RXF-631 renal = test system: RXF-631 renal

## C1CC[N-]CC1.CC(=N\O)/C(C)=N/O.CC(=N\O)/C(C)=N/O.[CH2-]CCN1CCOCC1.[Co+2]
MDA-N
  GI50: > 100 µM
  TGI: > 100 µM

## NCP(=O)(O)OCC(=O)O
SNB-78 CNS
  TGI: > 100 µM
DMS 273 small cell lung
  TGI: > 100 µM
DMS 114 small cell lung
  TGI: > 100 µM
DLD-1 colon
  TGI: > 100 µM
HOP-18 NSCLC
  TGI: > 100 µM
XF 498 CNS
  TGI: > 100 µM

## COc1cc(C2c3cc4c(cc3[C@@H](Nc3ccc(N)cc3)C3COC(=O)[C@H]23)OCO4)cc(OC)c1O (stereo partly specified)
MDA-N
  TGI: 18.4 µM
SNB-78 CNS
  TGI: 60.5 µM
DMS 273 small cell lung
  TGI: 5.39 µM
DMS 114 small cell lung
  GI50: 0.911 µM
  TGI: 8.77 µM
DLD-1 colon
  TGI: 22.2 µM
HOP-18 NSCLC
  GI50: 0.944 µM
  TGI: 40.4 µM
M19-MEL melanoma
  GI50: 0.99 µM
  TGI: 23.7 µM
XF 498 CNS
  GI50: 0.716 µM
  TGI: 13.6 µM

## Cn1ccnc1C[N-]Cc1nccn1C.O=[N+]([O-])[O-].O=[N+]([O-])[O-].[Cu+2]
SNB-78 CNS
  GI50: > 100 µM
  TGI: > 100 µM
DMS 273 small cell lung
  GI50: 73.8 µM
  TGI: > 100 µM
DMS 114 small cell lung
  GI50: > 100 µM
  TGI: > 100 µM
DLD-1 colon
  GI50: > 100 µM
  TGI: > 100 µM
HOP-18 NSCLC
  GI50: > 100 µM
  TGI: > 100 µM

## Cc1cc(O)c(C(c2ccncc2)c2c(O)cc(C)[nH]c2=O)c(=O)[nH]1
MDA-N
  TGI: > 100 µM

## CC(=O)CC(=O)/C=C/c1cccs1
DMS 114 small cell lung
  TGI: > 100 µM
DLD-1 colon
  TGI: > 100 µM
M19-MEL melanoma
  TGI: > 100 µM

## COC(=O)C1CC(C(=O)OC)c2nc3cc(C)c(C)cc3nc21 (stereo unspecified)
SNB-78 CNS
  TGI: > 100 µM
DMS 273 small cell lung
  TGI: > 100 µM
DMS 114 small cell lung
  TGI: > 100 µM
DLD-1 colon
  TGI: > 100 µM
HOP-18 NSCLC
  TGI: > 100 µM
RXF-631 renal
  TGI: > 100 µM
M19-MEL melanoma
  TGI: > 100 µM
XF 498 CNS
  TGI: > 100 µM

## O=C(c1ccccc1)C1C(C(=O)c2ccccc2)C(c2ccccc2)N(c2ccccc2)C1c1ccccc1 (stereo unspecified)
MDA-N
  TGI: > 100 µM

## CN(C)CCNc1nc(-c2cccs2)cc(-c2cccs2)n1
SNB-78 CNS
  TGI: 34.1 µM
DMS 273 small cell lung
  TGI: 24.4 µM
DMS 114 small cell lung
  TGI: 33.6 µM
DLD-1 colon
  TGI: 55.1 µM
XF 498 CNS
  TGI: 12.1 µM

## COc1ccc2nc3cccc(C(=O)NCCN(C)C)c3nc2c1
SNB-78 CNS
  TGI: 9.01 µM
DMS 273 small cell lung
  TGI: > 100 µM
DMS 114 small cell lung
  TGI: 3.45 µM
DLD-1 colon
  TGI: 5.12 µM
HOP-18 NSCLC
  TGI: > 21.8 µM
RXF-631 renal
  TGI: > 100 µM
M19-MEL melanoma
  TGI: 3.5 µM
XF 498 CNS
  TGI: 0.696 µM

## O=C1c2ccccc2-c2c1c1ccccc1c(=O)n2-c1ccccc1
MDA-N
  TGI: > 100 µM

## N#Cc1c2c(c(-c3cccs3)n(C3OC(CO)C(O)C(O)C3O)c1=S)CCc1ccccc1-2 (stereo unspecified)
MDA-N
  TGI: > 100 µM

## Cc1ccc(NC(=O)CCC(=O)C(C#N)c2ccccc2)cc1C (stereo unspecified)
SNB-78 CNS
  TGI: > 100 µM
DMS 273 small cell lung
  TGI: > 100 µM
DMS 114 small cell lung
  TGI: > 100 µM
DLD-1 colon
  TGI: > 100 µM
HOP-18 NSCLC
  TGI: > 100 µM
RXF-631 renal
  TGI: > 100 µM
XF 498 CNS
  TGI: > 100 µM

## COc1ccc(NC(=O)/C=C(C)/C=C/C=C(C)\C=C\C2=C(C)CCCC2(C)C)cc1
MDA-N
  GI50: 55.3 µM
  TGI: > 100 µM

## CC(=O)O[C@H]1C=CC23OC(=O)[C@]1(C)[C@H]2[C@H](C(=O)O)C12CC(=O)[C@@](CO)(CC[C@H]13)C2
SNB-78 CNS
  TGI: > 100 µM
DMS 273 small cell lung
  TGI: > 100 µM
DLD-1 colon
  TGI: > 100 µM
HOP-18 NSCLC
  TGI: > 100 µM
RXF-631 renal
  TGI: > 100 µM
M19-MEL melanoma
  TGI: > 100 µM
XF 498 CNS
  TGI: > 100 µM

## NC(=O)N/N=C(/c1nc2ccc([N+](=O)[O-])cc2[nH]c1=O)C(O)c1ccco1 (stereo unspecified)
SNB-78 CNS
  TGI: > 100 µM
DMS 273 small cell lung
  TGI: > 100 µM
DMS 114 small cell lung
  TGI: > 100 µM
DLD-1 colon
  TGI: > 100 µM
RXF-631 renal
  TGI: > 100 µM
M19-MEL melanoma
  TGI: > 100 µM
XF 498 CNS
  TGI: > 100 µM

## COc1cc([C@@H]2c3cc4c(cc3C[C@H]3COC(=O)[C@@H]32)OCO4)cc2c1OCO2
MDA-N
  TGI: < 0.01 µM

## CCOC(=O)/N=c1/nc(N(C)C)ss1
SNB-78 CNS
  TGI: > 100 µM
DMS 273 small cell lung
  TGI: > 100 µM
DMS 114 small cell lung
  TGI: > 100 µM
DLD-1 colon
  TGI: > 100 µM
HOP-18 NSCLC
  TGI: > 100 µM
RXF-631 renal
  TGI: > 100 µM
XF 498 CNS
  TGI: > 100 µM

## NS(=O)(=O)c1ccc(NC(=O)COC(=O)c2cccc3c(=O)c4ccccc4[nH]c23)cc1
SNB-78 CNS
  TGI: 44.5 µM
DMS 273 small cell lung
  TGI: > 95.1 µM
DMS 114 small cell lung
  TGI: 52.3 µM
DLD-1 colon
  TGI: > 100 µM
HOP-18 NSCLC
  TGI: 58.9 µM
RXF-631 renal
  TGI: > 100 µM
M19-MEL melanoma
  TGI: > 100 µM

## COc1ccc2c(c1)OCCC1=C2SCC2(C)CCN=C12 (stereo unspecified)
SNB-78 CNS
  TGI: > 100 µM
DMS 273 small cell lung
  TGI: > 100 µM
DMS 114 small cell lung
  TGI: > 100 µM
DLD-1 colon
  TGI: > 100 µM
HOP-18 NSCLC
  TGI: > 100 µM
XF 498 CNS
  TGI: > 100 µM

## CC(=O)n1ccc2c(Cl)ncnc21
SNB-78 CNS
  TGI: > 100 µM
DMS 273 small cell lung
  TGI: > 100 µM
DMS 114 small cell lung
  TGI: > 100 µM
DLD-1 colon
  TGI: > 100 µM
HOP-18 NSCLC
  TGI: > 100 µM
RXF-631 renal
  TGI: > 100 µM
M19-MEL melanoma
  TGI: > 100 µM

## COC(=O)C1C2CC3C(OC(=O)C31)C2OC(=O)[C@](OC)(c1ccccc1)C(F)(F)F (stereo partly specified)
SNB-78 CNS
  TGI: > 100 µM
DMS 273 small cell lung
  TGI: > 100 µM
DMS 114 small cell lung
  TGI: > 100 µM
DLD-1 colon
  TGI: > 100 µM
RXF-631 renal
  TGI: > 100 µM
M19-MEL melanoma
  TGI: > 100 µM
XF 498 CNS
  TGI: > 100 µM

## CN(C)CC1CCCC/C1=N/OC(=O)c1ccc(Cl)c(Cl)c1 (stereo unspecified)
DMS 273 small cell lung
  TGI: > 100 µM
DMS 114 small cell lung
  TGI: > 100 µM
DLD-1 colon
  TGI: > 100 µM
HOP-18 NSCLC
  TGI: > 100 µM
RXF-631 renal
  TGI: > 100 µM
M19-MEL melanoma
  TGI: > 100 µM

## N=C(N)SCCc1ccccn1
MDA-N
  TGI: > 100 µM

## N#C/C(=C\c1ccccc1Br)C(=O)c1ccccc1
SNB-78 CNS
  TGI: > 100 µM
DMS 273 small cell lung
  TGI: > 100 µM
DMS 114 small cell lung
  TGI: > 100 µM
RXF-631 renal
  TGI: > 100 µM
M19-MEL melanoma
  TGI: > 89.5 µM
XF 498 CNS
  TGI: > 79.9 µM

## COC(=O)Cc1nc2ccccc2o1
SNB-78 CNS
  TGI: > 100 µM
DMS 273 small cell lung
  TGI: > 100 µM
DMS 114 small cell lung
  TGI: > 100 µM
DLD-1 colon
  TGI: > 100 µM
HOP-18 NSCLC
  TGI: > 100 µM
RXF-631 renal
  TGI: > 100 µM
M19-MEL melanoma
  TGI: > 100 µM
XF 498 CNS
  TGI: > 100 µM

## COc1ccc(C(=O)O/N=C2/CCC/C2=C\c2ccccc2)cc1
SNB-78 CNS
  TGI: > 100 µM
DMS 273 small cell lung
  TGI: > 100 µM
DMS 114 small cell lung
  TGI: > 100 µM
DLD-1 colon
  TGI: > 100 µM
HOP-18 NSCLC
  TGI: > 100 µM
RXF-631 renal
  TGI: > 100 µM
M19-MEL melanoma
  TGI: > 100 µM
XF 498 CNS
  TGI: > 100 µM

## C[n+]1c(N)n(C(=O)OCc2ccccc2)c(=O)c2c1ncn2C(=O)OCc1ccccc1
SNB-78 CNS
  TGI: > 100 µM
DMS 273 small cell lung
  TGI: > 100 µM
DMS 114 small cell lung
  TGI: > 100 µM
DLD-1 colon
  TGI: > 100 µM
HOP-18 NSCLC
  TGI: > 100 µM
M19-MEL melanoma
  TGI: > 100 µM

## C[N+](C)(C)CC1CCCC/C1=N\O (stereo unspecified)
SNB-78 CNS
  TGI: > 100 µM
DMS 273 small cell lung
  TGI: > 100 µM
DMS 114 small cell lung
  TGI: > 100 µM
DLD-1 colon
  TGI: > 100 µM
HOP-18 NSCLC
  TGI: > 100 µM
RXF-631 renal
  TGI: > 100 µM

## CC1=C(C(=O)Nc2ccccc2)C(c2ccc(C(C)C)cc2)C(C(=O)Nc2ccccc2)=C(C)N1
SNB-78 CNS
  TGI: > 100 µM
DMS 114 small cell lung
  TGI: 47.5 µM
DLD-1 colon
  TGI: > 100 µM
HOP-18 NSCLC
  TGI: 49.3 µM
RXF-631 renal
  TGI: > 85.1 µM
M19-MEL melanoma
  TGI: 35.6 µM
XF 498 CNS
  TGI: 27 µM

## Nc1nc(N)c(-c2ccccc2)c(CCC(=O)Nc2ccc(Cl)cc2)n1
SNB-78 CNS
  TGI: > 100 µM
DMS 273 small cell lung
  TGI: > 100 µM
DLD-1 colon
  TGI: > 100 µM
HOP-18 NSCLC
  TGI: > 100 µM
M19-MEL melanoma
  TGI: > 100 µM

## Cc1ncc([N+](=O)[O-])n1CCNC(=O)CCCCCn1ccnc1[N+](=O)[O-]
MDA-N
  TGI: > 100 µM

## Cc1cc(O)cc2c1c(=O)c1ccccc1n2C
MDA-N
  TGI: > 100 µM

## NS(=O)(=O)c1ccc(NC(=O)Nc2ccccc2F)cc1
MDA-N
  TGI: > 100 µM

## O=C(/C(=C/c1ccccc1)c1ccccc1)N1c2ccccc2CC1c1c[nH]c2ccccc12 (stereo unspecified)
SNB-78 CNS
  TGI: > 100 µM
DMS 273 small cell lung
  TGI: > 100 µM
DMS 114 small cell lung
  TGI: > 100 µM
DLD-1 colon
  TGI: > 100 µM
M19-MEL melanoma
  TGI: > 100 µM
XF 498 CNS
  TGI: 8.95 µM

## CC(C)(C)OC(=O)N1N=NC2C3OC(CC3=O)C21 (stereo unspecified)
SNB-78 CNS
  TGI: > 100 µM
DMS 273 small cell lung
  TGI: > 100 µM
DMS 114 small cell lung
  TGI: > 100 µM
DLD-1 colon
  TGI: > 100 µM
HOP-18 NSCLC
  TGI: > 100 µM
RXF-631 renal
  TGI: > 100 µM

## COc1ccc(/C=N/N=C(\[O-])c2ccncc2)cc1F.COc1ccc(/C=N\N=C(/[O-])c2ccncc2)cc1F.[Cu+2]
MDA-N
  GI50: 32.7 µM
  TGI: > 100 µM

Reference: PubChem BioAssay (NCI)
